Results on 29 compounds are retold here after patent US8580811B2 (Ligand Pharmaceuticals Incorporated, priority 2005, dated 2013).

Where two headings read alike, the source gives them in different places.

This test addresses T1, human AR (Homo sapiens, UniProt P10275).
T1 construct: expressed in transfected cells; host or cells: COS-1 cells
T1 sequence (P10275 1-920): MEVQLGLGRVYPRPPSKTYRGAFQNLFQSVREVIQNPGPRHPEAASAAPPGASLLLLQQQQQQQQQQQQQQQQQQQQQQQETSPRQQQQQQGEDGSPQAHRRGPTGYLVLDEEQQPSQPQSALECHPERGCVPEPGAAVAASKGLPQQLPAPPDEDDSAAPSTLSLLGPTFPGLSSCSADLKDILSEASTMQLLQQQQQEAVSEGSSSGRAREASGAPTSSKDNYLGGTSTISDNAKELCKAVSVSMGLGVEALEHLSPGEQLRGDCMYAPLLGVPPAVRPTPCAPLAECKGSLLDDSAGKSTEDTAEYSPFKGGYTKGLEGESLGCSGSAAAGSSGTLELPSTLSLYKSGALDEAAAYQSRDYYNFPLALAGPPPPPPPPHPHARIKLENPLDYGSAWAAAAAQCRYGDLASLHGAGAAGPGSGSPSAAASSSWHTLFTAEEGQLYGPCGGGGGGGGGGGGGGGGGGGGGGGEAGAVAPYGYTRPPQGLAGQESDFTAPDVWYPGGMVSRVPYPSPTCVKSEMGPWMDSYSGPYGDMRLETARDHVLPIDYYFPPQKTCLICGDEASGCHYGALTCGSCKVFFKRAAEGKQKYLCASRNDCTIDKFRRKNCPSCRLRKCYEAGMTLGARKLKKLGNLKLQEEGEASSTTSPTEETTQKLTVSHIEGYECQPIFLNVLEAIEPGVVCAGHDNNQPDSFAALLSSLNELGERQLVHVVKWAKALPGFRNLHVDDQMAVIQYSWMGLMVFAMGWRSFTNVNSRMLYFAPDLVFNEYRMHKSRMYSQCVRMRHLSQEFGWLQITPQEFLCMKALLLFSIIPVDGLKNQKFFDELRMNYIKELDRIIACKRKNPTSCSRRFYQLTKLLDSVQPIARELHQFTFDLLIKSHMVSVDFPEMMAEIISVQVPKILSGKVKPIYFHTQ
Nature of the test: IR Binding Assay: whole cell competitive binding of test compounds against 3H-DHT in COS-1 cells transfected with pRShAR. The gist of the method: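 COS-1 cells transfected with pRShAR plus β-Gal reporter, serum-starved 24 h, then exposed to 1 nM ³H-DHT with compounds at 10^−10 to 10^−6 M for 3 h at 37 °C. Bound ³H-DHT counted in lysates, normalized to β-Gal. IC50 from log-logit plot; Ki via Cheng-Prusoff using Kd from Scatchard saturation analysis.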

Consider `Cc1c(-c2cccc(C(F)(F)F)c2)n(CC(F)(F)F)c2ccc3[nH]c(=O)cc(Cl)c3c12` [Compound 201, 9-Chloro-1-methyl-2-(3-trifluoromethylphenyl)-3-(2,2,2-trifluoroethyl)-3,6-dihydro-pyrrolo[3,2-f]-quinolin-7-one], for which the inhibition constant (Ki) is > 10 nM.
Still for that read-out and setting: then `Cc1c(-c2ccc(C(F)(F)F)cc2)n(CC(F)(F)F)c2ccc3[nH]c(=O)cc(Cl)c3c12` [Compound 202, 9-Chloro-1-methyl-2-(4-trifluoromethylphenyl)-3-(2,2,2-trifluoroethyl)-3,6-dihydro-pyrrolo[3,2-f]-quinolin-7-one], with > 10 nM; and `CCc1c(-c2ccccc2)n(CC(F)(F)F)c2ccc3[nH]c(=O)cc(Cl)c3c12` [Compound 203, 9-Chloro-1-ethyl-2-phenyl-3-(2,2,2-trifluoroethyl)-3,6-dihydro-pyrrolo[3,2-f]quinolin-7-one], with < 5 nM; and `Cc1ccc(-c2c(C)c3c4c(Cl)cc(=O)[nH]c4ccc3n2CC(F)(F)F)cc1` [Compound 204, 9-Chloro-1-methyl-2-(4-methylphenyl)-3-(2,2,2-trifluoroethyl)-3,6-dihydro-pyrrolo[3,2-f]-quinolin-7-one], with < 5 nM.
With `Cc1c(-c2cccc([N+](=O)[O-])c2)n(CC(F)(F)F)c2ccc3[nH]c(=O)cc(Cl)c3c12` [Compound 205, 9-Chloro-1-methyl-2-(3-nitrophenyl)-3-(2,2,2-trifluoroethyl)-3,6-dihydro-pyrrolo[3,2-f]quinolin-7-one], the Ki lay in the range of 5 to 10 nM.
As to `Cc1c(-c2ccc(Cl)cc2)n(CC(F)(F)F)c2ccc3[nH]c(=O)cc(Cl)c3c12` [Compound 206, 9-Chloro-2(4-chlorophenyl)-1-methyl-3-(2,2,2-trifluoroethyl)-3,6-dihydro-pyrrolo[3,2-f]quinolin-7-one], under “competition with 1 nM 3H-DHT, transfected COS-1 cells, 3 h at 37° C., Cheng-Prusoff from IC50, read-out: Ki”, the Ki was > 10 nM.
`Cc1c(-c2cccs2)n(CC(F)(F)F)c2ccc3[nH]c(=O)cc(Cl)c3c12` [Compound 207, 9-Chloro-1-methyl-2-thien-2-yl-3-(2,2,2-trifluoroethyl)-3,6-dihydro-pyrrolo[3,2-f]quinolin-7-one]: the Ki was < 5 nM.
On the same count and under the same terms, then `Cc1c(C)n(C)c2ccc3[nH]c(=O)cc(Cl)c3c12` [Compound 208, 9-Chloro-1,2,3-trimethyl-3,6-dihydro-pyrrolo[3,2-f]quinolin-7-one], with 5 to 10 nM.
Same read-out and setting: the value for `CCc1c(-c2cccs2)n(CC(F)(F)F)c2ccc3[nH]c(=O)cc(Cl)c3c12` [Compound 209, 9-Chloro-1-ethyl-2-thien-2-yl-3-(2,2,2-trifluoroethyl)-3,6-dihydro-pyrrolo[3,2-f]quinolin-7-one] was < 5 nM; that for `CCCc1c(C)n(CC(F)(F)F)c2ccc3[nH]c(=O)cc(Cl)c3c12` [Compound 210, 9-Chloro-2-methyl-1-propyl-3-(2,2,2-trifluoroethyl)-3,6-dihydro-pyrrolo[3,2-f]quinolin-7-one] was < 5 nM.
The same measure, in the same setting: the value for `Cc1cn(CC(F)(F)F)c2ccc3[nH]c(=O)cc(Cl)c3c12` [Compound 211, 9-Chloro-1-methyl-3-(2,2,2-trifluoroethyl)-3,6-dihydro-pyrrolo[3,2-f]quinolin-7-one] was 5 to 10 nM.
With `Cc1c(C)n(CC(F)(F)Cl)c2ccc3[nH]c(=O)cc(Cl)c3c12` [Compound 212, 9-Chloro-3-(2-chloro-2,2-difluoroethyl)-1,2-dimethyl-3,6-dihydro-pyrrolo[3,2-f]quinolin-7-one], the Ki was < 5 nM.
For the compound `Cc1c(C)n(CCC(F)(F)F)c2ccc3[nH]c(=O)cc(Cl)c3c12` [Compound 213, 9-Chloro-1,2-dimethyl-3-(3,3,3-trifluoropropyl)-3,6-dihydro-pyrrolo[3,2-f]quinolin-7-one], the Ki was < 5 nM.
Regarding `Cc1c(C)n(CC(F)(F)C(F)(F)C(F)(F)F)c2ccc3[nH]c(=O)cc(Cl)c3c12` [Compound 214, 9-Chloro-1,2-dimethyl-3-(2,2,3,3,4,4,4-heptafluorobutyl)-3,6-dihydro-pyrrolo[3,2-f]-quinolin-7-one], the inhibitory constant (Ki) is > 10 nM.
The same measure, in the same setting: then `Cc1c(C)n(CC(F)(F)C(F)(F)F)c2ccc3[nH]c(=O)cc(Cl)c3c12` [Compound 215, 9-Chloro-1,2-dimethyl-3-(2,2,3,3,3-pentafluoropropyl)-3,6-dihydro-pyrrolo[3,2-f]-quinolin-7-one], with < 5 nM; and `CCc1c(C)c2c3c(Cl)cc(=O)[nH]c3ccc2n1CCC(F)(F)F` [Compound 216, 9-Chloro-2-ethyl-1-methyl-3-(3,3,3-trifluoropropyl)-3,6-dihydro-pyrrolo[3,2-f]quinolin-7-one], with < 5 nM.
On the same count and under the same terms, then `Cc1c(-c2ccccc2)n(CCC(F)(F)F)c2ccc3[nH]c(=O)cc(Cl)c3c12` [Compound 217, 9-Chloro-1-methyl-2-phenyl-3-(3,3,3-trifluoropropyl)-3,6-dihydropyrrolo[3,2-f]-quinolin-7-one], with < 5 nM; and `Cc1c(-c2ccccc2)n(CC(F)(F)C(F)(F)F)c2ccc3[nH]c(=O)cc(Cl)c3c12` [Compound 218, 9-Chloro-1-methyl-3-(2,2,3,3,3-pentafluoropropyl)-2-phenyl-3,6-dihydro-pyrrolo[3,2-f]-quinolin-7-one], with < 5 nM.
With `Cc1c(C)n(CC(F)(F)C(F)(F)F)c2ccc3[nH]c(=O)cc(C(F)(F)F)c3c12` [Compound 219, 1,2-Dimethyl-3-(2,2,3,3,3-pentafluoropropyl)-9-trifluoromethyl-3,6-dihydro-pyrrolo[3,2-f]-quinolin-7-one], the Ki is < 5 nM.
Still for that read-out and setting: then `Cc1c(C)n(CC(F)(F)Cl)c2ccc3[nH]c(=O)cc(C(F)(F)F)c3c12` [Compound 220, 1,2-Dimethyl-3-(2-chloro-2,2-difluoroethyl)-9-trifluoromethyl-3,6-dihydro-pyrrolo[3,2-f]-quinolin-7-one], with < 5 nM.
As to `Cc1c(C)n(CCC(F)(F)F)c2ccc3[nH]c(=O)cc(C(F)(F)F)c3c12` [Compound 221, 1,2-Dimethyl-9-trifluoromethyl-3-(3,3,3-trifluoropropyl)-3,6-dihydro-pyrrolo[3,2-f]-quinolin-7-one], the inhibition constant Ki was < 5 nM.
For the compound `CCc1c(C)c2c3c(Cl)cc(=O)[nH]c3ccc2n1CC(F)(F)Cl` [Compound 222, 9-Chloro-3-(2-chloro-2,2-difluoroethyl)-2-ethyl-1-methyl-3,6-dihydro-pyrrolo[3,2-f]-quinolin-7-one], the Ki was < 5 nM.
On to `CCc1c(C)c2c3c(Cl)cc(=O)[nH]c3ccc2n1CC(F)(F)C(F)(F)F` [Compound 223, 9-Chloro-2-ethyl-1-methyl-3-(2,2,3,3,3-pentafluoropropyl)-3,6-dihydro-pyrrolo[3,2-f]-quinolin-7-one], for which the Ki was < 5 nM.
On the same count and under the same terms, the value for `CCc1c(C)c2c3c(C(F)(F)F)cc(=O)[nH]c3ccc2n1CC(F)(F)Cl` [Compound 224, 3-(2-Chloro-2,2-difluoroethyl)-2-ethyl-1-methyl-9-trifluoromethyl-3,6-dihydro-pyrrolo[3,2-f]-quinolin-7-one] was < 5 nM; that for `CCc1c(C)c2c3c(C(F)(F)F)cc(=O)[nH]c3ccc2n1CC(F)(F)C(F)(F)F` [Compound 225, 2-Ethyl-1-methyl-3-(2,2,3,3,3-pentafluoropropyl)-9-trifluoromethyl-3,6-dihydro-pyrrolo[3,2-f]-quinolin-7-one] was < 5 nM; that for `CCc1c(C)c2c3c(C(F)(F)F)cc(=O)[nH]c3ccc2n1CCC(F)(F)F` [Compound 226, 2-Ethyl-1-methyl-9-trifluoromethyl-3-(3,3,3-trifluoropropyl)-3,6-dihydro-pyrrolo[3,2-f]-quinolin-7-one] was < 5 nM.
Turning to `Cc1c(C)n(CCCC(F)(F)F)c2ccc3[nH]c(=O)cc(C(F)(F)F)c3c12` [Compound 227, 1,2-Dimethyl-3-(4,4,4-trifluorobutyl)-9-trifluoromethyl-3,6-dihydro-pyrrolo[3,2-f]-quinolin-7-one], the Ki is < 5 nM.
As for `CCc1c(C)c2c3c(C(F)(F)F)cc(=O)[nH]c3ccc2n1CCCC(F)(F)F` [Compound 228, 2-Ethyl-1-methyl-3-(4,4,4-trifluorobutyl)-9-trifluoromethyl-3,6-dihydro-pyrrolo[3,2-f]-quinolin-7-one], the Ki was < 5 nM.
On to `Cc1c(C(F)(F)F)n(CC(F)(F)F)c2ccc3[nH]c(=O)cc(Cl)c3c12` [Compound 229, 9-Chloro-1-methyl-3-(2,2,2-trifluoro-ethyl)-2-trifluoromethyl-3,6-dihydro-pyrrolo[3,2-f]-quinolin-7-one], for which the Ki was < 5 nM.
